Conditions: not given

| Compound | boiling point [°C] | log10 vapour pressure (mmHg) | melting point [°C] | log10 Koc (L/kg) | log10 biodegradation half-life (days) | log10 Koa | ready biodegradability |
| --- | --- | --- | --- | --- | --- | --- | --- |
| CCC(C)C(C)=O (stereo not given) | 118 | 1.06 | – | – | – | – | – |
| CCCCCC#CC(=O)OC | 218 | – | – | – | – | – | – |
| CC(=O)NC(N)=O | – | – | 218 | – | – | – | – |
| Nc1cccc(Cl)c1Cl | 252 | – | 24 | – | – | – | – |
| CCCCCC1CCCC1 | 180 | – | -83 | – | – | – | – |
| CC1CCCc2ccccc21 (stereo not given) | 221 | – | – | – | – | – | – |
| O=S(=O)(Cl)C(F)(F)F | 30.5 | – | – | – | – | – | – |
| O=[N+]([O-])c1c(Cl)ccc2ccccc12 | – | – | 99.5 | – | – | – | – |
| FC(F)(F)N1C(F)(F)C(F)(F)OC(F)(F)C1(F)F | 51 | – | -80 | – | – | – | – |
| N=C(N)NC(=O)c1nc(Cl)c(N)nc1N | – | – | 241 | – | – | – | – |
| Cc1c2ccccc2cc2ccccc12 | – | -4.4 | 81.5 | 4.81 | 2.42 | – | – |
| ClC1=C(Cl)C2(Cl)C3C(Cl)C(Cl)C(Cl)C3C1(Cl)C2(Cl)Cl (stereo not given) | – | -6.02 | – | – | – | 9.43 | – |
| Cc1ncc[nH]1 | 267 | – | 144 | – | – | – | not readily biodegradable |
| Nc1ccc(Cl)cc1 | 232 | -1.57 | 72.5 | 1.96 | – | – | not readily biodegradable |
| BrC(Br)C(Br)(Br)Br | – | – | 56.5 | – | – | – | – |
| CC(=O)S[C@@H]1CC2=CC(=O)CC[C@]2(C)[C@H]2CC[C@@]3(C)[C@@H](CC[C@@]34CCC(=O)O4)[C@H]12 | – | – | 208 | – | – | – | – |
| O=C(O)CCCCCCCCCCC(=O)O | – | – | 128 | – | – | – | – |
| NC(=O)Nc1ccc2ccccc2c1 | – | – | 219 | – | – | – | – |
| Cc1cccc(OCC(O)CNC(C)C)c1 (stereo not given) | – | – | 76 | – | – | – | – |
| CC1(C)S[C@@H]2[C@H](N3C(=O)C(c4ccccc4)NC3(C)C)C(=O)N2[C@H]1C(=O)O (stereo not given in full) | – | – | 190 | – | – | – | – |
| CC(C)CCC(C)C(C)C (stereo not given) | 156 | – | – | – | – | – | – |
| Nc1ccc(N)c2c1C(=O)c1cccc([N+](=O)[O-])c1C2=O | – | – | 257 | – | – | – | – |
| O=C(O)CCC(=O)Nc1ccccc1 | – | – | 148 | – | – | – | – |

| Compound | boiling point [°C] | log10 vapour pressure (mmHg) | melting point [°C] | log10 Koc (L/kg) | log10 biodegradation half-life (days) | log10 Koa | ready biodegradability |
| --- | --- | --- | --- | --- | --- | --- | --- |
| CCCCCCCCCCCC(=O)[O][Na] | – | – | – | – | – | – | readily biodegradable |
| CN1CC[C@]23C(=O)C[C@H]4C(=CCO[C@H]5CC(=O)N(c6c(O)cccc62)[C@H]3[C@H]54)C1 | – | – | 282 | – | – | – | – |
| N#CCc1c[nH]c2ccccc12 | – | – | 36 | – | – | – | – |
| O=[N+]([O-])c1ccccc1CCl | – | – | 51 | – | – | – | – |
| Cc1csc(C)n1 | 146 | 0.706 | – | – | – | – | – |
| Clc1ccc(Cl)c(I)c1 | 253 | – | 22 | – | – | – | – |
| CCOC(=O)N(C)N=O | – | 0.0719 | – | – | – | – | – |
| CC1(C)C(=O)Nc2ccccc21 | 300 | – | 154 | – | – | – | – |
| Clc1cccc2c1Oc1ccccc1O2 | – | -4.05 | 104 | – | – | – | – |
| C[C@@H](Br)C(=O)Cl | 132 | – | – | – | – | – | – |
| ClC1=C(Cl)C2(Cl)C3C4C=CC(C4)C3C1(Cl)C2(Cl)Cl (stereo not given) | – | – | – | – | – | – | not readily biodegradable |
| OCCNCCO | 269 | -3.55 | 28 | 0.6 | – | – | readily biodegradable |
| CCCOC(=O)CCC(=O)OCCC | 251 | – | -5.9 | – | – | – | – |
| COS(=O)(=O)[O-].C[N+]1(C)CCN(CC(O)(c2ccccc2)C2CCCCC2)CC1 (stereo not given) | – | – | 205 | – | – | – | – |
| CCNc1nc(Cl)nc(NC(C)(C)C)n1 | – | -5.95 | 178 | 2.32 | – | – | – |
| O=C(O)COc1ccc(C(=O)c2cccs2)c(Cl)c1Cl | – | – | 149 | – | – | – | – |
| CN(C)CCc1c[nH]c2cccc(O)c12 | – | – | 174 | – | – | – | – |
| CCC(=O)c1cccc(OC)c1 | 259 | – | – | – | – | – | – |
| FC(F)OC(F)C(F)(F)F (stereo not given) | 23.5 | 2.82 | – | – | – | – | – |
| O=Cc1ccccc1C(=O)O | – | – | 98 | – | – | – | – |
| CC(C)CC(=O)C(C)C | 148 | – | – | – | – | – | – |
| CC(C)(C)NCC(O)COc1cccc2c1C[C@H](O)[C@H](O)C2 (stereo not given in full) | – | – | 130 | – | – | – | – |
| CCCN(C)C | 66 | – | – | – | – | – | – |

| Compound | boiling point [°C] | log10 vapour pressure (mmHg) | melting point [°C] | log10 Koc (L/kg) | log10 biodegradation half-life (days) | log10 Koa | ready biodegradability |
| --- | --- | --- | --- | --- | --- | --- | --- |
| CC(C)(CO)Cc1ccccc1 | – | – | 34.5 | – | – | – | – |
| CC(=O)OCOc1ccccc1C(N)=O | – | – | 92.5 | – | – | – | – |
| O=c1[nH]c(=O)n([C@H]2C[C@H](O)[C@@H](CO)O2)cc1Br | – | – | 192 | – | – | – | – |
| CCS(=O)CC | – | – | 14 | – | – | – | – |
| O=C(OCC(COC(=O)c1cccnc1)(COC(=O)c1cccnc1)COC(=O)c1cccnc1)c1cccnc1 | – | – | 162 | – | – | – | – |
| C=C(C)C(=O)OCCCCOC(=O)C(=C)C | – | – | 226 | – | – | – | – |
| CCCCOC(=O)CCl | 183 | – | – | – | – | – | – |
| FCCl | -9.1 | 3.39 | -133 | – | – | – | – |
| Sc1ccccn1 | – | – | 129 | – | – | – | – |
| O=C(O)C(O)c1ccc(Br)cc1 (stereo not given) | – | – | 118 | – | – | – | – |
| COC(=O)c1ccncc1 | 208 | – | 16.1 | – | – | – | – |
| N=C(N)S(=O)O | – | – | – | – | – | – | readily biodegradable |
| N#CSC#N | – | – | 63.5 | – | – | – | – |
| CCC=CCC(=O)O | 208 | – | 12 | – | – | – | – |
| COP(=S)(Oc1cc(Cl)c(Br)cc1Cl)c1ccccc1 (stereo not given) | – | -7.64 | 70.4 | 4.5 | – | – | – |
| O=c1ccoc2ccccc12 | – | – | 59 | – | – | – | – |
| Cc1cc(C)c(Br)cc1C | 234 | – | 73 | – | – | – | – |
| CC(C)(C)CC(=O)OCC(=O)[C@@]12OC(C)(C)O[C@@H]1C[C@H]1[C@@H]3CCC4=CC(=O)C=C[C@]4(C)[C@@]3(F)[C@@H](O)C[C@@]12C | – | – | 295 | – | – | – | – |
| COc1cc(C)oc(=O)c1 | – | – | 86 | – | – | – | – |
| C1=Cc2ccccc2C1 | 182 | 0.0414 | -1.8 | – | 0.477 | – | – |
| Cc1ccccc1CCl | 198 | – | – | – | – | – | – |

Same assay, conditions: fish

| Compound | log10 biotransformation half-life (days) | log10 BCF |
| --- | --- | --- |
| C=C(C)CCCCCCCCC | 0.17 | – |
| C1COCCO1 | – | -0.3 |
| Oc1ccccc1 | – | 1.24 |
| CCOP(=S)(OCC)Oc1ccc(=O)n(-c2ccccc2)n1 | -0.7 | 0.67 |
| c1ccsc1 | -0.82 | 0.95 |
| Cc1c2ccccc2cc2ccccc12 | 0.23 | – |
| Nc1ccc(Cl)cc1 | -0.61 | 0.84 |
| COP(=S)(Oc1cc(Cl)c(Br)cc1Cl)c1ccccc1 (stereo not given) | 1.26 | 3.78 |
